Test results taken from US20130196999A1, “METHODS OF CONTROLLING NEONICOTINOID RESISTANT APHIDS” (SYNGENTA CROP PROTECTION LLC, priority 2010, published 2013).

How the values were obtained:
[1] = test system: neonicotinoid insecticide susceptible strain 4106A; experiment: Leaf disc spray bioassay, aphid mortality, susceptible strain; assay type: in vivo; details: mixed age aphids on chinese cabbage leaf discs, Potter Tower spray, mortality 72 hours after treatment; strain 4106A from Rothamsted Research
Procedure: (§1) The following bioassay methodology was utilized to generate the data included in the table:
(§2) 5 cm leaf discs were taken from fully expanded chinese cabbage leaves and placed with the underside facing upwards onto water agar in 5 cm Petri dishes. The leaf discs are infested with between 30 and 40 mixed age aphids 24 hours prior to insecticide treatment. The leaf surface is sprayed with the appropriate test solutions in a Burkhard Potter Tower at an approximate water volume of […]. Test containers are stored at 21° C., 60% RH and 16:8 light/dark. Aphids were assessed for mortality 72 hours after treatment.

[2] = test system: neonicotinoid insecticide resistant aphid strain; experiment: Leaf disc spray bioassay, aphid mortality, resistant strain; assay type: in vivo, aphids; details: for LC50 with 95% confidence limit, resistant strain: mixed age aphids on chinese cabbage leaf discs, Potter Tower spray, mortality 72 hours after treatment, strain collected from peach orchard, Avignon region, 2009
Procedure: as §1, §2

Structure (SMILES)	LC50 with 95% confidence limit, susceptible strain [1]	LC50 with 95% confidence limit, resistant strain [2]	cross-resistance with neonicotinoid insecticides ([2]; neonicotinoid resistant populations of aphids)
CN1COCN(Cc2cnc(Cl)s2)/C1=N\[N+](=O)[O-] [thiamethoxam, reference compound]	0.35 (0.3-0.41) ppm	148 (128-172) ppm	–
CC1=NNC(=O)N(N=Cc2cccnc2)C1 [pymetrozine, 4,5-dihydro-6-methyl-4-(3-pyridylmethyleneamino)-1,2,4-triazin-3(2H)-one]	0.52 (0.4-0.66) ppm	3.07 (0.97-6.59) ppm	no cross-resistance
